Test system: E. coli
Test: Antibiotic susceptibility test of a single living bacterium in whole blood by single-bacterium mass spectrometry (metabolite signal change)
Format: cell-based, Escherichia coli
Settings: E. coli from whole blood supernatant; 10 μL of 8 mg/mL kanamycin or 10 μL of 2 mg/mL norfloxacin added into 500 μL; 30 min at 37° C.; FIG. 12
Protocol: 1 mL of whole blood was taken and placed in a centrifuge tube, centrifuged at 3000 rpm for 8 min; the blood cell pellet was discarded; 10 μL of 8 mg/mL kanamycin and 10 μL of 2 mg/mL norfloxacin were respectively added into 500 μL of the supernatant containing the bacterium, and incubated with shaking at 37° C. After 30 min of incubation, the supernatant was centrifuged at 10,000 rpm for 8 min; the supernatant was discarded, and the pellet was resuspended in 100 μL of deionized water; the solution containing the bacterium not having been incubated with the antibiotic was used as a reference group, and the same operations as above were performed. […]
10 μL of 100 μM Acridine Orange as a staining agent was added into the solution containing the bacterium obtained in step (1) and step (2) to perform staining for 15 min. […] The resuspended solution containing the bacterium was dropped onto a polylysine slide and leave for 30 minutes to allow the bacterium to be adsorbed and fixed on the polylysine slide, and then the polylysine slide was rinsed with deionized water and dried at room temperature; the location of bacteria was observed under a fluorescence microscope. […]

CCn1cc(C(=O)O)c(=O)c2cc(F)c(N3CCNCC3)cc21 [norfloxacin]
change of alanyl-threonine (m/z 191) signal in a single bacterium after incubation with antibiotic: significantly reduced
